Data reported in PubChem BioAssay AID493250 (Broad Institute, 2011).
Active and inactive are the calls of the source.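 How the source made its calls: active means signal decrease with fitted half-maximal dose at or below ten times the highest valid tested dose; inconclusive means poor fit, or flat fit at 30 to 70% inhibition; inactive means the rest.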

What follows are molecules tested against Zinc finger protein mex-5 (Caenorhabditis elegans) (UniProt Q9XUB2) (assay: inhibitors of MEX-5 RNA binding, dose response, biochemical, fluorescence polarization, C. elegans, cherry-picked, round 3 (AID 493250)). Settings: purified MEX-5-MBP, FITC-TCR2 RNA fluorescence polarization.
Zinc finger protein mex-5 (Caenorhabditis elegans), sequence (Q9XUB2 whole entry, looked up): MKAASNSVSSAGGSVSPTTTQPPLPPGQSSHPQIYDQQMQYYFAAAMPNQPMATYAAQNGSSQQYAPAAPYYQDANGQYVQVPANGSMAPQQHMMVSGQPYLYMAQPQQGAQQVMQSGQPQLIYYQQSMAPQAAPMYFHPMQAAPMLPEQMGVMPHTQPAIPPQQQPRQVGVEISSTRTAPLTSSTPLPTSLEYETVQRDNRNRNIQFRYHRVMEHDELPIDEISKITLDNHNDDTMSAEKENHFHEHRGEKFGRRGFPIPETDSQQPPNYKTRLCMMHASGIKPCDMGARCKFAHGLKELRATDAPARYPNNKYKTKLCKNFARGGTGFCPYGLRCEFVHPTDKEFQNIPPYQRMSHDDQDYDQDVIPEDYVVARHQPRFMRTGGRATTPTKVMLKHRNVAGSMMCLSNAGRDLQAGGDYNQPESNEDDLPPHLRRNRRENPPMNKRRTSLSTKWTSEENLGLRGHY
`CCN(CC)c1ccc(/C=C(/C#N)c2nc3ccc(C)cc3[nH]2)c(OC(C)C)c1` showed an AC50 of 1.16 µM. In the case of `Cc1cccc2c(N=Nc3ccccc3)c(O)[nH]c12`, the AC50 is reported as > 10 µM (inactive). For `Cc1cc2c(C)nc(N/N=C/c3ccc([N+](=O)[O-])cc3)nc2o1`, the AC50 was 6.83 µM. `CCN1C(=O)c2cccc3c(NC(=O)C4CCCCC4)ccc1c23` was tested, and the AC50 was 6.96 µM. For `C=CCn1c(=O)[nH]c2nc3cc(N=CN(C)C)c(C)cc3nc2c1=O`, the AC50 was 5.73 µM. Molecule `COc1ccc(OC)c(NC(=O)c2sc3nc(Cc4ccccc4)cc(C(F)(F)F)c3c2N)c1` has an AC50 of 6.44 µM.

Same assay, conditions: purified MEX-5-MBP, FITC-TCR2 RNA fluorescence polarization; at 10 µM (top of the series)
For `Cn1c(C2=C(O)CN(c3ccccc3)C2=N)nc2ccccc21`, the “activity change, negative = inhibition” value was “inactive”. For `COC(=O)c1ccc(CC(=O)c2c(C)cc(O)cc2O)o1`, the “activity change, negative = inhibition” value was “inactive”. In the case of `O=C(NNC(=O)c1ccccc1[N+](=O)[O-])c1ccco1`, the “activity change, negative = inhibition” value is reported as “inactive”. `CCCOc1ccc(C2=CSC3=NCCN23)cc1[N+](=O)[O-]` was tested, and the “activity change, negative = inhibition” value was “inactive”. In the case of `CC(=O)CSc1ncnc2nc[nH]c12`, the “activity change, negative = inhibition” value is reported as “inactive”. In the case of `COC(=O)c1ccc(-c2ccc(C(c3c(C)[nH][nH]c3=O)c3c(C)[nH][nH]c3=O)o2)cc1`, the “activity change, negative = inhibition” value is reported as “inactive”. For `O=C(NNc1ccccc1)C(=O)NNS(=O)(=O)c1ccc(CCCl)cc1`, the “activity change, negative = inhibition” value was “inactive”. In the case of `Cc1cc(=O)oc(C)c1C(=O)Nc1c(C)n(C)n(-c2ccccc2)c1=O`, the “activity change, negative = inhibition” value is reported as “inactive”. `O=C(O)COc1ccc(Br)cc1C(c1c(C(=O)O)[nH]c2ccccc12)c1c(C(=O)O)[nH]c2ccccc12` was tested, and the “activity change, negative = inhibition” value was “inactive”. `CCCCCC(=O)N(Cc1ccccc1)c1c(N)n(CCOC)c(=O)[nH]c1=O` was tested, and the “activity change, negative = inhibition” value was “inactive”. For `O=C(O)c1ccc(NC2=C(Cl)C(=O)c3ccccc3C2=O)cc1`, the “activity change, negative = inhibition” value was “inactive”. In the case of `CSc1ccc(/C=C/C(=O)c2ccc(NC(C)=O)cc2)cc1`, the “activity change, negative = inhibition” value is reported as “inactive”. `COc1ccc(N=C2S/C(=C\c3ccc(N4CCOCC4)o3)C(=O)N2CCc2c[nH]c3ccccc23)cc1` was tested, and the “activity change, negative = inhibition” value was “inactive”. With `COc1c(OC2OC(C(=O)O)C(O)C(O)C2O)cc(O)c2c(=O)cc(-c3ccccc3)oc12` (stereo unspecified) the “activity change, negative = inhibition” value was “inactive”. For `CCc1cc(-c2n[nH]c(C)c2-c2nc3ccccc3s2)c(O)cc1OCC(=O)NN`, the “activity change, negative = inhibition” value was “inactive”. `O=C(CSc1nnc(COc2ccccc2)o1)Nc1nccs1` was tested, and the “activity change, negative = inhibition” value was “inactive”. With `N#CC1=C(N)Oc2c(O)cc3ccccc3c2C1c1ccsc1` (stereo unspecified) the “activity change, negative = inhibition” value was “inactive”. In the case of `CCN(CC)c1ccc(C(=O)N/N=C(\C)c2cccnc2)cc1`, the “activity change, negative = inhibition” value is reported as “inactive”. In the case of `CN1CCc2c(sc(NC(=O)c3ccc(S(=O)(=O)N4CCCC4)cc3)c2C(N)=O)C1`, the “activity change, negative = inhibition” value is reported as “inactive”. For `COc1ccc(OC)c(-n2c(-c3cc(-c4ccco4)[nH]n3)n[nH]c2=S)c1`, the “activity change, negative = inhibition” value was “inactive”. `COc1ccc2cc3c(N)c(C(=O)NCc4ccco4)sc3nc2c1` was tested, and the “activity change, negative = inhibition” value was “inactive”. In the case of `Cc1nc2ccc(NC(=O)NC(=O)c3c(Cl)cccc3Cl)cc2o1`, the “activity change, negative = inhibition” value is reported as “inactive”. In the case of `CC1=Nc2ccccc2/C1=C\c1nc(-c2ccccc2)oc1O`, the “activity change, negative = inhibition” value is reported as “inactive”. In the case of `N#C/C(=N\Nc1cccc(C(F)(F)F)c1)C(=O)c1ccsc1`, the “activity change, negative = inhibition” value is reported as “inactive”. In the case of `CCc1nnc2c(N(C)C)nc3ccccc3n12`, the “activity change, negative = inhibition” value is reported as “inactive”. `CCN(CC)c1ccc(N=Cc2c(O)n(-c3ccccc3C)c(=O)[nH]c2=O)cc1` was tested, and the “activity change, negative = inhibition” value was “inactive”. In the case of `COc1ccc(CCn2c(=N)c(C(=O)NCC3CCCO3)cc3c(=O)n4ccccc4nc32)cc1` (stereo unspecified), the “activity change, negative = inhibition” value is reported as “inactive”. For `CC(=O)O[C@@H]1[C@@H](O)[C@@H](O)[C@H](Oc2c(-c3ccc(O)cc3)oc3c(CC=C(C)C)c(O)cc(O)c3c2=O)O[C@H]1C`, the “activity change, negative = inhibition” value was “inactive”. In the case of `Cc1ccc(NC(=O)CCC(=O)NNC(=S)Nc2ccc(F)cc2)c(C)c1`, the “activity change, negative = inhibition” value is reported as “inactive”. For `O=C(CCc1ccccc1)N/N=C\c1cc2c(cc1Br)OCO2`, the “activity change, negative = inhibition” value was “inactive”. `Cc1ccc(-c2nc(C=Nc3cccc(C)c3)c(O)o2)cc1` was tested, and the “activity change, negative = inhibition” value was “inactive”. `Cc1cc(C)c[n+](-c2nc([O-])sc2C=O)c1` was tested, and the “activity change, negative = inhibition” value was “inactive”. With `O=C(NC1CCSc2ccccc21)c1ccc([N+](=O)[O-])cc1` (stereo unspecified) the “activity change, negative = inhibition” value was “inactive”. In the case of `COc1ccc(/C=C/C(=O)c2cc(Cl)cc(Cl)c2O)c(OC)c1`, the “activity change, negative = inhibition” value is reported as “inactive”. In the case of `COc1ccc(C2NC(=O)N(CCCC(=O)O)C(C)=C2C(=O)OCc2ccccc2)cc1` (stereo unspecified), the “activity change, negative = inhibition” value is reported as “inactive”. In the case of `Cn1cc(CNC(=O)C2c3ccccc3Oc3ccccc32)cn1`, the “activity change, negative = inhibition” value is reported as “inactive”. With `CCOC(=O)C1Cc2ccccc2C(=O)O1` (stereo unspecified) the “activity change, negative = inhibition” value was “inactive”. With `CC(=O)N1CCc2c(sc(NC(=O)C3CCCN3S(=O)(=O)c3cccs3)c2C#N)C1` (stereo unspecified) the “activity change, negative = inhibition” value was “inactive”. `O=C(NC1CCSc2ccccc21)c1cccc(Br)c1` (stereo unspecified) was tested, and the “activity change, negative = inhibition” value was “inactive”. With `COc1cc(/C=C2/C(C)=C(C#N)c3nc(N)c(C#N)c(C)c32)ccc1OCC(=O)O` the “activity change, negative = inhibition” value was “inactive”. For `CC1=C(C(=O)OCc2ccccc2)C(c2ccc(N(C)C)cc2)NC(=O)N1` (stereo unspecified), the “activity change, negative = inhibition” value was “inactive”. In the case of `Cc1csc(NC(=O)c2ccc(-c3ccc(Cl)cc3Cl)o2)n1`, the “activity change, negative = inhibition” value is reported as “inactive”. In the case of `Nc1c(NCc2ccccc2)c(=O)[nH]c(=O)n1Cc1ccccc1`, the “activity change, negative = inhibition” value is reported as “inactive”. For `O=C1N=c2ccccc2=C1c1sc(=S)n(NC(=O)c2ccccc2)c1O`, the “activity change, negative = inhibition” value was “inactive”. In the case of `CCCCN(CCCC)CCNC(=O)CNC(=O)c1cccs1`, the “activity change, negative = inhibition” value is reported as “inactive”. For `COc1cc2c(cc1O)CC1c3c(cc(O)c(OC)c3-2)CCN1C` (stereo unspecified), the “activity change, negative = inhibition” value was “inactive”. In the case of `C=CCOc1ccc(C(c2c(C(=O)O)[nH]c3ccccc23)c2c(C(=O)O)[nH]c3ccccc23)cc1`, the “activity change, negative = inhibition” value is reported as “inactive”. With `O=C(O)c1ccc(N2Cc3ccccc3C2)cc1O` the “activity change, negative = inhibition” value was “inactive”. `CC(C)(C)N(CC#CCC(O)(c1ccccc1)c1ccccc1)CCO` was tested, and the “activity change, negative = inhibition” value was “inactive”. With `C#CCOCCOCCOCCNc1nc(N2CCN(C(=O)[C@H]([C@@H](C)O)n3cc(CCCCN)nn3)CC2)nc(N2CCN(C(=O)[C@H](C)n3cc(CCCN=C(N)N)nn3)CC2)n1` the “activity change, negative = inhibition” value was “inactive”. In the case of `Oc1c(C=Nc2ccccc2)sc(=S)n1Cc1ccccc1`, the “activity change, negative = inhibition” value is reported as “inactive”. In the case of `CC(=O)c1cc(NC(=O)c2ccc(C)cc2)c(=O)oc1C`, the “activity change, negative = inhibition” value is reported as “inactive”. `Cc1cccn2c(=O)c3cc(S(=O)(=O)c4ccc(Br)cc4)c(=N)n(C4CCCCC4)c3nc12` was tested, and the “activity change, negative = inhibition” value was “inactive”. In the case of `Cc1cccc(C)c1NC(=O)/C(C#N)=C/c1cccs1`, the “activity change, negative = inhibition” value is reported as “inactive”. With `CC(=O)Nc1ccc2c(c1)C(=O)N(c1cccc(C)c1)C2=O` the “activity change, negative = inhibition” value was “inactive”. In the case of `Cc1cc([N+](=O)[O-])nn1CC(=O)NNC(=S)Nc1ccc(F)cc1`, the “activity change, negative = inhibition” value is reported as “inactive”. For `COc1ccc(/C=C2\CCCc3c2nc2ccc(C)cc2c3C(=O)O)cc1O`, the “activity change, negative = inhibition” value was “inactive”. `COc1ccc(NC(=O)c2cccs2)cn1` was tested, and the “activity change, negative = inhibition” value was “inactive”. `O=C1S/C(=C\c2cccs2)C(=O)N1c1ccc(O)cc1` was tested, and the “activity change, negative = inhibition” value was “inactive”. With `COC(=O)C1=C(C)OC(N)=C(C#N)C1c1cc(OC)c(OCC(N)=O)cc1Cl` (stereo unspecified) the “activity change, negative = inhibition” value was “inactive”.
